Laboratory results reported in publication PMC5991599, “Anti‐tumor efficacy of a novel CLK inhibitor via targeting RNA splicing and MYC‐dependent vulnerability” (EMBO Molecular Medicine, 2018).

Key:
DYRK2 = biological target: T1, DYRK2 (Homo sapiens, UniProt Q92630); assay: KINOMEScan-based kinase selectivity assay; format: binding
T1 construct: purchased DiscoverX Corporation (Fremont, CA, USA)
Method: (§1) The KINOMEScan‐based kinase selectivity assay was performed at the DiscoverX Corporation (Fremont, CA, USA). The panel of growth inhibition assay and subsequent bioinformatics analysis (Fig EV1) were performed at Eurofins Inc. (St. […] Details of the procedures of cell proliferation assay, caspase‐3/7 activity assay, immunoblotting, and immunohistochemistry are described in Appendix Supplementary Methods.

CLK1 [1] = biological target: T2, CLK1 (Homo sapiens, UniProt P49759); assay: KINOMEScan-based kinase selectivity assay; format: binding
Method: as §1

IRAK4 = biological target: T3, IRAK4 (Homo sapiens, UniProt Q9NWZ3); assay: KINOMEScan-based kinase selectivity assay; format: binding
T3 construct: purchased DiscoverX Corporation (Fremont, CA, USA)
Method: as §1

HIPK1 = biological target: T4, HIPK1 (Homo sapiens, UniProt Q86Z02); assay: KINOMEScan-based kinase selectivity assay; format: binding
T4 construct: purchased DiscoverX Corporation (Fremont, CA, USA)
Method: as §1

CLK2 [2] = biological target: T5, CLK2 (Homo sapiens, UniProt P49760); assay: KINOMEScan-based kinase selectivity assay; format: binding
Method: as §1

DYRK1A = biological target: T6, DYRK1A (Homo sapiens, UniProt Q13627); assay: KINOMEScan-based kinase selectivity assay; format: binding
T6 construct: purchased DiscoverX Corporation (Fremont, CA, USA)
Method: as §1

YSK4 = biological target: T7, YSK4 (Homo sapiens, UniProt Q56UN5); assay: KINOMEScan-based kinase selectivity assay; format: binding
T7 construct: purchased DiscoverX Corporation (Fremont, CA, USA)
Method: as §1

ERK8 = biological target: T8, ERK8 (Homo sapiens, UniProt Q8TD08); assay: KINOMEScan-based kinase selectivity assay; format: binding
T8 construct: purchased DiscoverX Corporation (Fremont, CA, USA)
Method: as §1

CLK3 [3] = biological target: T9, CLK3 (Homo sapiens, UniProt P49761); assay: KINOMEScan-based kinase selectivity assay; format: binding
Method: as §1

FLT3 D835H = biological target: T10, FLT3 D835H (Homo sapiens, UniProt P36888, D835H); assay: KINOMEScan-based kinase selectivity assay; format: binding
T10 construct: purchased DiscoverX Corporation (Fremont, CA, USA)
Method: as §1

CLK4 = biological target: T11, CLK4 (Homo sapiens, UniProt Q9HAZ1); assay: KINOMEScan-based kinase selectivity assay; format: binding
T11 construct: purchased DiscoverX Corporation (Fremont, CA, USA)
Method: as §1

MEG01 = assay: Panel of growth inhibition assays (OncoPanel 240); format: cell-based; settings: Homo sapiens, MEG-01; 72 h; leukemia; read-out: IC50 (Oncopanel, cell count)
Method: (§2) The KINOMEScan‐based kinase selectivity assay was performed at the DiscoverX Corporation (Fremont, CA, USA). The panel of growth inhibition assay and subsequent bioinformatics analysis (Fig EV1) were performed at Eurofins Inc. (St. Charles, MO, USA), using OncoPanel 240 or 60. Details of the procedures of cell proliferation assay, caspase‐3/7 activity assay, immunoblotting, and immunohistochemistry are described in Appendix Supplementary Methods.
(§3) Panel of growth inhibition assay and subsequence bioinformatics analysis (at […]
(§4) A growth inhibition assay panel and subsequent bioinformatics analysis were performed at Eurofins Inc. (MO, U.S.A.) by utilizing Oncopanel240 or 60.
(§5) According to the study reports from Eurofins Inc., cells were seeded into 384 well plates at a single cell density in standardized media. After 24 hours, the test compounds were added and the plate was incubated continuously for 72 hours. Cells were then fixed and stained to visualize nuclei. The number of nuclei was counted and normalized.
(§6) Cellular response parameters were calculated using nonlinear regression to a sigmoidal single-site dose response model and the IC50 value of each cell line was calculated.
(§7) Genomic features were binned into six distinct categories, each of which was considered to be a “biomarker-positive” grouping: Mutated (non-synonymous, coding, and non-coding mutations), Amplified, Deleted, Overexpressed, Mutated or amplified (gain-of-function), and Mutated or deleted (loss-of-function). Two orthogonal significance tests were performed on each genomic feature as follows.
(§8) Student’s t-test: For each genomic feature within each of the six above categories, IC50 cell count values for biomarker-positive and biomarker-negative groups were […]

CMLT1 = assay: Panel of growth inhibition assays (OncoPanel 240); format: cell-based; settings: CML-T1; 72 h; leukemia; read-out: IC50 (Oncopanel, cell count)
Method: as §2, §3, §4, §5, §6, §7, §8

HT = assay: Panel of growth inhibition assays (OncoPanel 240); format: cell-based; settings: Homo sapiens, 72 h, lymphoma, read-out: IC50 (Oncopanel, cell count)
Method: as §2, §3, §4, §5, §6, §7, §8

HEL9217 = assay: Panel of growth inhibition assays (OncoPanel 240); format: cell-based; settings: Homo sapiens, HEL 92.1.7; 72 h; leukemia; read-out: IC50 (Oncopanel, cell count)
Method: as §2, §3, §4, §5, §6, §7, §8

MOLT16 = assay: Panel of growth inhibition assays (OncoPanel 240); format: cell-based; settings: Homo sapiens, MOLT-16; 72 h; leukemia; read-out: IC50 (Oncopanel, cell count)
Method: as §2, §3, §4, §5, §6, §7, §8

CCRF-CEM = assay: Panel of growth inhibition assays (OncoPanel 240); format: cell-based; settings: Homo sapiens, 72 h, leukemia, read-out: IC50 (nmol/L) Cell count
Method: as §2, §3, §4, §5, §6, §7, §8

RPMI8226 = assay: Panel of growth inhibition assays (OncoPanel 240); format: cell-based; settings: Homo sapiens, RPMI-8226; 72 h; myeloma; read-out: IC50 (Oncopanel, cell count)
Method: as §2, §3, §4, §5, §6, §7, §8

DAUDI = assay: Panel of growth inhibition assays (OncoPanel 240); format: cell-based; settings: Homo sapiens, 72 h, lymphoma, read-out: IC50 (Oncopanel, cell count)
Method: as §2, §3, §4, §5, §6, §7, §8

U266B1 = assay: Panel of growth inhibition assays (OncoPanel 240); format: cell-based; settings: 72 h; myeloma; read-out: IC50 (Oncopanel, cell count)
Method: as §2, §3, §4, §5, §6, §7, §8

786-O = assay: Panel of growth inhibition assays (OncoPanel 240); format: cell-based; settings: Homo sapiens, 786-0; 72 h; kidney cancer; read-out: IC50 (nmol/L) Oncopanel
Method: as §2, §3, §4, §5, §6, §7, §8

RAJI = assay: Panel of growth inhibition assays (OncoPanel 240); format: cell-based; settings: Homo sapiens, 72 h, lymphoma, read-out: IC50 (Oncopanel, cell count)
Method: as §2, §3, §4, §5, §6, §7, §8

240 cancer cell lines = assay: Panel of growth inhibition assays (OncoPanel 240); format: cell-based; settings: hematological and solid cancer cell lines; 72 h; read-out: IC50 values, anti-proliferative activity
Method: as §2, §3, §4, §5, §6, §7, §8

DB = assay: Panel of growth inhibition assays (OncoPanel 240); format: cell-based; settings: Homo sapiens, 72 h, lymphoma, read-out: IC50 (Oncopanel, cell count)
Method: as §2, §3, §4, §5, §6, §7, §8

CLK1 [4] = biological target: T2, CLK1; assay: Enzymatic assay; format: biochemical; settings: read-out: IC50 (nmol/L) CLK1
Excerpt: (§9) Appendix Supplemental Methods

CLK2 [5] = biological target: T5, CLK2; assay: Enzymatic assay; format: biochemical; settings: read-out: IC50 (nmol/L) CLK2
Excerpt: as §9

DYRK1B = DYRK1B (Homo sapiens, UniProt Q9Y463); assay: Enzymatic assay; format: biochemical; settings: read-out: IC50 (nmol/L) DYRK1B
Excerpt: as §9

CLK3 [6] = biological target: T9, CLK3; assay: Enzymatic assay; format: biochemical; settings: read-out: IC50 (nmol/L) CLK3
Excerpt: as §9

T5 sequence (P49760 whole entry): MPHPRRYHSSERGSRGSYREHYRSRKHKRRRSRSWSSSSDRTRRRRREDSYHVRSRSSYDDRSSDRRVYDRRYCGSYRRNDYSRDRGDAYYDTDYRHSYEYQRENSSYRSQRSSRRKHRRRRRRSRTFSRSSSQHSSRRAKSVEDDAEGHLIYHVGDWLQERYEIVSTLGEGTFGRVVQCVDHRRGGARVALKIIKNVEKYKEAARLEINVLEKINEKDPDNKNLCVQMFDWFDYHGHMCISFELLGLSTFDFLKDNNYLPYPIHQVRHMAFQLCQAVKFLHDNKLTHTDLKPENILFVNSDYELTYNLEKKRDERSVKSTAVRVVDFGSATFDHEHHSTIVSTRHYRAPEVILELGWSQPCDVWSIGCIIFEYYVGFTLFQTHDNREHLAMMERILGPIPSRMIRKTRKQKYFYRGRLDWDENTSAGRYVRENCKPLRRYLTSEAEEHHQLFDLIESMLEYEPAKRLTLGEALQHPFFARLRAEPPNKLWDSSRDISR
T2 sequence (P49759 whole entry): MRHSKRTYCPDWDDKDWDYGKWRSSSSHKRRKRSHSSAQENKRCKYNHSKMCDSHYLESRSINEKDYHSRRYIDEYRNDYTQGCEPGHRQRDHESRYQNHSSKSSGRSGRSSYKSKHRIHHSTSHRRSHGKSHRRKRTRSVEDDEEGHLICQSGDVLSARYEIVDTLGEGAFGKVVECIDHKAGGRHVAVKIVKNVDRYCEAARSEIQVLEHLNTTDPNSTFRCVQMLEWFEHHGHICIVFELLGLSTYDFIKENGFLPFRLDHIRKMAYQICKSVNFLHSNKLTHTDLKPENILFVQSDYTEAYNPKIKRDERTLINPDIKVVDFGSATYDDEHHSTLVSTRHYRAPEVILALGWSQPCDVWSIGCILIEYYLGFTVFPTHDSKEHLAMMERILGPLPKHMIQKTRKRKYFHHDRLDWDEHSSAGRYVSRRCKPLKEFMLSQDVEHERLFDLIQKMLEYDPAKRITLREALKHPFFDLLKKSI
T9 sequence (P49761 whole entry): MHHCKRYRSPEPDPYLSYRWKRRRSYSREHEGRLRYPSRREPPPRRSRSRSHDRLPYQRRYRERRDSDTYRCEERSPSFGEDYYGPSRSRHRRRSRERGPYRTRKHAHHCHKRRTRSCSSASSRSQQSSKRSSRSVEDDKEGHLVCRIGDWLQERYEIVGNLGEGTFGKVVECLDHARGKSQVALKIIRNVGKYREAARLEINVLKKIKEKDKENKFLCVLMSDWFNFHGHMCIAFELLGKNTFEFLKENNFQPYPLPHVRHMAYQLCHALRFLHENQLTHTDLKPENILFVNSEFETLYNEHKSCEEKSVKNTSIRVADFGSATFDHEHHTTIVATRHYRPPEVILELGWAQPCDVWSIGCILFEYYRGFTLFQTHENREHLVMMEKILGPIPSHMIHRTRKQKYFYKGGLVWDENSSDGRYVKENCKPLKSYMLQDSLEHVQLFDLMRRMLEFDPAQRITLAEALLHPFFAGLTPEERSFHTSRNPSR
T11 sequence (Q9HAZ1 whole entry): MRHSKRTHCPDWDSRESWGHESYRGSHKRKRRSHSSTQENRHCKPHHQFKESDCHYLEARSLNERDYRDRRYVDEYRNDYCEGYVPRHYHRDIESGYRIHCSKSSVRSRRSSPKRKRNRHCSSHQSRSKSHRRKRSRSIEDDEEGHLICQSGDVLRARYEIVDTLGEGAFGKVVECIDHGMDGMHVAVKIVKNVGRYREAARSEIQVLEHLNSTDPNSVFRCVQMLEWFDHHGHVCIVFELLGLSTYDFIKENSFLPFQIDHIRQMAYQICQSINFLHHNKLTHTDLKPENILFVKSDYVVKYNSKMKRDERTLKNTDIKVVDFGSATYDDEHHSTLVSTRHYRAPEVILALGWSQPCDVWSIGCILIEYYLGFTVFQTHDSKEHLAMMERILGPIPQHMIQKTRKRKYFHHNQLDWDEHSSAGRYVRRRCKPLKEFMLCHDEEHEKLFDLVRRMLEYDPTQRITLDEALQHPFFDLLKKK
T8 sequence (Q8TD08 whole entry): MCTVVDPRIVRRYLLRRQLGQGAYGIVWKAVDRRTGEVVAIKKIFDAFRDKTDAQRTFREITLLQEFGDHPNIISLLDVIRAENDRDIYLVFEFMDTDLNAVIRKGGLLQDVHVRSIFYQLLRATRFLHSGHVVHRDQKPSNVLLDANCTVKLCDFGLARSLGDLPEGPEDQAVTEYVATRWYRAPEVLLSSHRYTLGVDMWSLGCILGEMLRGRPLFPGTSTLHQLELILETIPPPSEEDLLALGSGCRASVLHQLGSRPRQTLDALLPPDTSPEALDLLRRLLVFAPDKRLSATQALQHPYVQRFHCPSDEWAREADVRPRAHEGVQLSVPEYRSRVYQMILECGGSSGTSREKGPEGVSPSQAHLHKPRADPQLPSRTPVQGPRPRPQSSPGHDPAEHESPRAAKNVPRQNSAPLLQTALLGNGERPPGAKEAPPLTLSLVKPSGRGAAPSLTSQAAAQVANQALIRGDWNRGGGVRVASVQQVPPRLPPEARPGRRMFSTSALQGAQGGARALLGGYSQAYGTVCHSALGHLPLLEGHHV
T4 sequence (Q86Z02 whole entry): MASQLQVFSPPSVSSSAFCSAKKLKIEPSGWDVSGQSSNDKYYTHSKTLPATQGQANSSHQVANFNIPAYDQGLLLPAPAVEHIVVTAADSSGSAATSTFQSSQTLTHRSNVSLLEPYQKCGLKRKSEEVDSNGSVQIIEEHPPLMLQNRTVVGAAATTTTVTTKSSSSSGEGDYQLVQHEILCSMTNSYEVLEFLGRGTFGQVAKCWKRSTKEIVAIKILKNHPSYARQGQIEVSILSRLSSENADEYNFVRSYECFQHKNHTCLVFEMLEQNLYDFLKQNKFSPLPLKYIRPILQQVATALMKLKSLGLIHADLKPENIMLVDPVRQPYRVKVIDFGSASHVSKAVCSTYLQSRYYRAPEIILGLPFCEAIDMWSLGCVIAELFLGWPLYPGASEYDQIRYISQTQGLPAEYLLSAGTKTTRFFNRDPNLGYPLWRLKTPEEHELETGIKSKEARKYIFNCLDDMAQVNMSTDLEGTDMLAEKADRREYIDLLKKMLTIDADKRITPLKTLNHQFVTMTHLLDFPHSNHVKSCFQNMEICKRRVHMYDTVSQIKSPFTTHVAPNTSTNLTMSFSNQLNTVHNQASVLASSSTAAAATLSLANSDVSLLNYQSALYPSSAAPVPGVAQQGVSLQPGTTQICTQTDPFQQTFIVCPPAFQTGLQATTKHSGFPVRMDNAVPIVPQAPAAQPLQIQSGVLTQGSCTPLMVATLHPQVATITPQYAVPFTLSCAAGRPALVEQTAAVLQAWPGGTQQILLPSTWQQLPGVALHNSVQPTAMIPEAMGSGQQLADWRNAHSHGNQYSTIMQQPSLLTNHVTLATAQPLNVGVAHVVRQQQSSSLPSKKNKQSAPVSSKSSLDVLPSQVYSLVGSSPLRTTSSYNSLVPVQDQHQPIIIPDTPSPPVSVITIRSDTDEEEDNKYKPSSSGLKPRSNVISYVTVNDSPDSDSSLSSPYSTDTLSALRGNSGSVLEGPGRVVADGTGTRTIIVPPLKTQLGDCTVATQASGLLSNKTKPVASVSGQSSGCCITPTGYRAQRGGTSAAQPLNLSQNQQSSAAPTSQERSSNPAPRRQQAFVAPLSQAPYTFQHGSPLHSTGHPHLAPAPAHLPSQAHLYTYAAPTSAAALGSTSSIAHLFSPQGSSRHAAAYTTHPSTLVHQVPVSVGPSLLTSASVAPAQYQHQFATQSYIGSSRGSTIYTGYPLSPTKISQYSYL
T3 sequence (Q9NWZ3 whole entry): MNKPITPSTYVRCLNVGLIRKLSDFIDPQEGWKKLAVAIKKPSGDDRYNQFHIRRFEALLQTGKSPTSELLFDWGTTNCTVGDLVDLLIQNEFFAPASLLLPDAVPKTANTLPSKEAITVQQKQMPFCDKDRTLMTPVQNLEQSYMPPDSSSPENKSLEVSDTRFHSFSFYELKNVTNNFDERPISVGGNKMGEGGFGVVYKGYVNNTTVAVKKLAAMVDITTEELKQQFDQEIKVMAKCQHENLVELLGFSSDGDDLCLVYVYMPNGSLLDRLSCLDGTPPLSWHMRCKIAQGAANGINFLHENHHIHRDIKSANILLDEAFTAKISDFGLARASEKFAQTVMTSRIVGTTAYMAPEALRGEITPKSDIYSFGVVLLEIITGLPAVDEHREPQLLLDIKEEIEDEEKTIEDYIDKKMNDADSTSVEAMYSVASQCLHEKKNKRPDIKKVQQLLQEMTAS
T1 sequence (Q92630 whole entry): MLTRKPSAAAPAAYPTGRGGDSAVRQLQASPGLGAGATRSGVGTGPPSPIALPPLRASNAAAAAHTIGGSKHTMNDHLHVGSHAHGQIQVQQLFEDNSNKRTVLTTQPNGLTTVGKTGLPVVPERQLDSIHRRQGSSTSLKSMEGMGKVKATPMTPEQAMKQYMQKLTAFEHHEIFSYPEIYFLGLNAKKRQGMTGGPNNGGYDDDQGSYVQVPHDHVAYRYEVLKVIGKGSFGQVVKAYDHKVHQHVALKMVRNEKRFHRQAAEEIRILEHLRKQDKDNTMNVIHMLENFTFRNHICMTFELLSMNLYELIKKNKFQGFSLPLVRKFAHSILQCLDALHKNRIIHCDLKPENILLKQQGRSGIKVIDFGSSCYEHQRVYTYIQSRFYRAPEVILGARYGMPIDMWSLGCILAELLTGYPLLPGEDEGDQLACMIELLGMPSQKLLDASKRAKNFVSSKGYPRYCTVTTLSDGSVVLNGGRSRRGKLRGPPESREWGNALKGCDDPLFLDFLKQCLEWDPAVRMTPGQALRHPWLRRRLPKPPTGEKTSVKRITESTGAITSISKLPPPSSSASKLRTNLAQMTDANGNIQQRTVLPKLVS

CNc1nc(NCc2ncccn2)c2c(-c3ccc4ncccc4c3)c[nH]c2n1 [T-025, N ^2‐methyl‐N ^4‐[pyrimidin‐2‐ylmethyl]‐5‐[quinolin‐6‐yl]‐7H‐pyrrolo[2,3‐d]pyrimidine‐2,4‐diamine]
Kd (DYRK2): 32 nM
inhibition at 0.3 µM (DYRK2; 300 nmol/L, n = 2): 98.6%
Kd (CLK1 [1]): 4.8 nM
inhibition at 0.3 µM (CLK1 [1]; 300 nmol/L, n = 2): 99.4%
Kd (IRAK4): 54 nM
inhibition at 0.3 µM (IRAK4; 300 nmol/L, n = 2): 94.8%
Kd (HIPK1): 55 nM
inhibition at 0.3 µM (HIPK1; 300 nmol/L, n = 2): 94.6%
Kd (CLK2 [2]): 0.096 nM
inhibition at 0.3 µM (CLK2 [2]; 300 nmol/L, n = 2): 93.1%
Kd (DYRK1A): 0.074 nM
inhibition at 0.3 µM (DYRK1A; 300 nmol/L, n = 2): 100%
Kd (YSK4): 33 nM
inhibition at 0.3 µM (YSK4; 300 nmol/L, n = 2): 97.5%
Kd (ERK8): 140 nM
inhibition at 0.3 µM (ERK8; 300 nmol/L, n = 2): 94.8%
Kd (CLK3 [3]): 6.5 nM
inhibition at 0.3 µM (CLK3 [3]; 300 nmol/L, n = 2): 90.2%
Kd (FLT3 D835H): 94 nM
inhibition at 0.3 µM (FLT3 D835H; 300 nmol/L, n = 2): 98.8%
Kd (CLK4): 0.61 nM
inhibition at 0.3 µM (CLK4; 300 nmol/L, n = 2): 100%
IC50 (MEG01): 305 nM
IC50 (CMLT1): 69.7 nM
IC50 (HT): 228 nM
IC50 (HEL9217): 38.3 nM
IC50 (MOLT16): 20.6 nM
IC50 (CCRF-CEM): 45.9 nmol/L
IC50 (RPMI8226): 99.3 nM
IC50 (DAUDI): 52.5 nM
IC50 (U266B1): 35.1 nM
IC50 (786-O): 239 nmol/L
IC50 (RAJI): 84.7 nM
IC50 (240 cancer cell lines): 30 to 300 nM
IC50 (DB): 43.3 nM
IC50 (CLK1 [4]): 0.93 nmol/L
IC50 (CLK2 [5]): 1 nmol/L
IC50 (DYRK1B): 1.5 nmol/L
IC50 (CLK3 [6]): 14 nmol/L
